Ten compounds from patent US11034679B2 (priority 2017, dated 2021) can be followed below.

Where two headings read alike, the source gives them in different places.

The target in data set [1] is T1, MOR (Homo sapiens, UniProt P35372). The experiment in a line: cell-based. Set-up: host or cells: CHO-K1 OPRM1 β-arrestin-2 cells. Conditions: for Emax: read-out: % Efficacy (maximum efficacy based on DAMGO maximum stimulation).
Target sequence in this assay (P35372 whole entry): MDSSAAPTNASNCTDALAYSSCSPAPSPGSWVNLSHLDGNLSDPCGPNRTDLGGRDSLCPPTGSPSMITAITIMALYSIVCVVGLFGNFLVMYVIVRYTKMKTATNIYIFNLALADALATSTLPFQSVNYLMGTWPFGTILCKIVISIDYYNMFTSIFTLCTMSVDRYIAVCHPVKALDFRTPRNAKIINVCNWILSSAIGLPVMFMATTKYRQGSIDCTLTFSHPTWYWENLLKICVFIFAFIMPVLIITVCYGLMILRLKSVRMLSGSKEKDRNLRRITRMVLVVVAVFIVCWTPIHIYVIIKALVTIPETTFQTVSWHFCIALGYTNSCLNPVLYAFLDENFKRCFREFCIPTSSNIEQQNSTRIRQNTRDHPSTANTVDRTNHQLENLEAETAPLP
Target sequence in this assay (P32121 whole entry partner): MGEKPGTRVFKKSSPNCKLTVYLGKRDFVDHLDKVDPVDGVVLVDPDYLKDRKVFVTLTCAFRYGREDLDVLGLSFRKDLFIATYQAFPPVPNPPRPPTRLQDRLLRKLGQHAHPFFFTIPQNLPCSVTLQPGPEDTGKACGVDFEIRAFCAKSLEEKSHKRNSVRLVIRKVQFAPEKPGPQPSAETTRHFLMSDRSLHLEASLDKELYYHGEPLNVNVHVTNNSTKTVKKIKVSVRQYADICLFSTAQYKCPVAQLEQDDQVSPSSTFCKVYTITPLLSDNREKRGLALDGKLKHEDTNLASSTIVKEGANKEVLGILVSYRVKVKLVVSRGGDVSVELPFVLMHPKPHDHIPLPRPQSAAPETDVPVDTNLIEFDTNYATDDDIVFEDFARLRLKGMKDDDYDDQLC
Data set [2] addresses T1, MOR. As to the kind of experiment: cell-based. Format: cell-based. Also noted: expressed in transfected cells; host or cells: CHO cells stably expressing MOR. As to conditions: for MOR potency relative to kurkinorin: cAMP assay, Table 1.
Target sequence in this assay (P35372 whole entry): as the sequence (P35372 whole entry) above
Data set [3] has as its system mice. The experiment in a line: hot water tail-flick tolerance evaluation. Conditions: daily i.p. for 9 days, 10 mg/kg morphine or 5 mg/kg compound 3.46, latency 30 min after dose. In kind it is in vivo.
The test system of data set [4] is mice. As to the kind of experiment: accelerating rotarod performance assay. As to conditions: preliminary data, compared to morphine. A general note: Falling from the rotarod earlier than controls is read as motor impairment.
[5] abbreviates: CHO cells expressing MOR, read-out: EC50 (inhibition of cAMP accumulation).

For the compound `COC(=O)[C@@H]1C=C(OC(=O)c2ccc3occc3c2)C(=O)[C@H]2[C@@]1(C)CC[C@H]1C(=O)O[C@H](c3ccoc3)C[C@]21C` [Entry 2, Methyl (2S,4aR,6aR,7R,10aR,10bR)-9-((benzofuran-5-carbonyl)oxy)-2-(furan-3-yl)-6a,10b-dimethyl-4,10-dioxo-1,4,4a,5,6,6a,7,10,10a,10b-decahydro-2H-benzo[f]isochromene-7-carboxylate], in data set [1], the “Bias Factor” value came out at 1.21, the concentration giving a half-maximal response (EC50) worked out at 490 nM and the Emax is 84%. The compound further gave an EC50 in data set [2] of 9 ± 2 nM.

Take `COCc1ccc(C(=O)OC2=C[C@@H](C(=O)OC)[C@]3(C)CC[C@H]4C(=O)O[C@H](c5ccoc5)C[C@]4(C)[C@H]3C2=O)cc1` [Entry 5, Methyl (2S,4aR,6aR,7R,10aR,10bR)-2-(furan-3-yl)-9-((4-(methoxymethyl)benzoyl)oxy)-6a,10b-dimethyl-4,10-dioxo-1,4,4a,5,6,6a,7,10,10a,10b-decahydro-2H-benzo[f]isochromene-7-carboxylate]: in data set [1], the “Bias Factor” value is listed as 1.98, the EC50 came out at 360 nM and the Emax was 74%. The EC50 in data set [2] (setting [5]) worked out at 13 ± 3 nM.

In turn, `COC(=O)[C@@H]1C=C(OC(=O)c2ccc(CO)cc2)C(=O)[C@H]2[C@@]1(C)CC[C@H]1C(=O)O[C@H](c3ccoc3)C[C@]21C` [Entry 3, Methyl (2S,4aR,6aR,7R,10aR,10bR)-2-(furan-3-yl)-9-((4-(hydroxymethyl)benzoyl)oxy)-6a,10b-dimethyl-4,10-dioxo-1,4,4a,5,6,6a,7,10,10a,10b-decahydro-2H-benzo[f]isochromene-7-carboxylate] gave a melting point of 115 to 118 °C. Further, in data set [3], the “antinociceptive effects (% maximal possible effect) on daily administration” value is reported as “maintained antinociceptive efficacy from days 1-9”. Moreover, the “effects on motor coordination” value in data set [4] is “significantly less effects on motor coordination than morphine”. In data set [1], the “Bias Factor” value is given as 0.14, the EC50 was 14 nM and the Emax is 81%. Besides, the EC50 in data set [2] (setting [5]) was 0.03 ± 0.01 nM. In addition, in data set [2], the “MOR potency relative to kurkinorin” value is listed as “about two orders of magnitude more potent than kurkinorin”.

Regarding `COC(=O)[C@@H]1C=C(OC(=O)c2ccc3c(c2)CNC3=O)C(=O)[C@H]2[C@@]1(C)CC[C@H]1C(=O)O[C@H](c3ccoc3)C[C@]21C` [Entry 9, (2S,4aR,6aR,7R,10aR,10bR)-2-(furan-3-yl)-7-(methoxycarbonyl)-6a,10b-dimethyl-4,10-dioxo-1,4,4a,5,6,6a,7,10,10a,10b-decahydro-2H-benzo[f]isochromen-9-yl 1-oxoisoindoline-5-carboxylate], in data set [1], the “Bias Factor” value is listed as 0.81, the EC50 stood at 260 nM and the Emax was 88%. The EC50 in data set [2] (setting [5]) stood at 3.2 ± 0.7 nM.

As for `COC(=O)[C@@H]1C=C(OC(=O)c2ccc(C(N)=O)cc2)C(=O)[C@H]2[C@@]1(C)CC[C@H]1C(=O)O[C@H](c3ccoc3)C[C@]21C` [Entry 6], in data set [1], the “Bias Factor” value is reported as 1.57, it took 10 nM to reach a half-maximal effect (EC50) and the Emax is 119%. Also, in data set [2], a half-maximal response (EC50) required 0.19 ± 0.03 nM and the “MOR potency relative to kurkinorin” value is reported as “almost an order of magnitude more potent than kurkinorin”.

As to `COC(=O)[C@@H]1C=C(OC(=O)c2cccc(CO)c2)C(=O)[C@H]2[C@@]1(C)CC[C@H]1C(=O)O[C@H](c3ccoc3)C[C@]21C` [Entry 4, Methyl (2S,4aR,6aR,7R,10aR,10bR)-2-(furan-3-yl)-9-((3-(hydroxymethyl)benzoyl)oxy)-6a,10b-dimethyl-4,10-dioxo-1,4,4a,5,6,6a,7,10,10a,10b-decahydro-2H-benzo[f]isochromene-7-carboxylate], the melting point fell in the range of 104 to 106 °C. For the same compound, in data set [1], the “Bias Factor” value turned out to be 0.87, the EC50 turned out to be 150 nM and the Emax was 75%. The EC50 in data set [2] (setting [5]) came out at 2.42 ± 0.07 nM.

For the compound `C[C@@H](NC(=O)[C@@H](N)Cc1ccc(O)cc1)C(=O)NCC(=O)N(C)[C@@H](Cc1ccccc1)C(=O)NCCO` [DAMGO, reference compound], in data set [1], the “Bias Factor” value is recorded as 1.0.

With `COC(=O)[C@@H]1C=C(OC(=O)c2cccc(C(N)=O)c2)C(=O)[C@H]2[C@@]1(C)CC[C@H]1C(=O)O[C@H](c3ccoc3)C[C@]21C`, the EC50 was > 25000 nM in data set [1] and > 10000 nM in data set [2]. Moreover, the Emax in data set [1] and in data set [2] (CHO) was 0% each time.

With `COC(=O)[C@@H]1C=C(OC(=O)c2ccc3c(c2)C(=O)NC3)C(=O)[C@H]2[C@@]1(C)CC[C@H]1C(=O)O[C@H](c3ccoc3)C[C@]21C` [Entry 8, (2S,4aR,6aR,7R,10aR,10bR)-2-(furan-3-yl)-7-(methoxycarbonyl)-6a,10b-dimethyl-4,10-dioxo-1,4,4a,5,6,6a,7,10,10a,10b-decahydro-2H-benzo[f]isochromen-9-yl 3-oxoisoindoline-5-carboxylate], in data set [1], the “Bias Factor” value was 0.65, a half-maximal response (EC50) required 190 nM and the Emax was 76%. The EC50 in data set [2] (setting [5]) was determined as 2.2 ± 0.2 nM.

Turning to `COC(=O)[C@@H]1C=C(OC(=O)c2ccc3ccoc3c2)C(=O)[C@H]2[C@@]1(C)CC[C@H]1C(=O)O[C@H](c3ccoc3)C[C@]21C` [Entry 1, Methyl (2S,4aR,6aR,7R,10aR,10bR)-9-((benzofuran-6-carbonyl)oxy)-2-(furan-3-yl)-6a,10b-dimethyl-4,10-dioxo-1,4,4a,5,6,6a,7,10,10a,10b-decahydro-2H-benzo[f]isochromene-7-carboxylate], in data set [1], the “Bias Factor” value is 2.62, the EC50 was 40 nM and the Emax is 90%. The EC50 in data set [2] (setting [5]) was found to be 1.5 ± 0.6 nM.

As a reminder, the EC50 is the midpoint of the concentration-response curve. In general, melting point refers to the temperature, or range, at which the solid turns liquid.
